Assay results as given in patent publication US20210238528A1, “CELL SCAFFOLD MATERIAL” (Stem Cell & Device Laboratory, Inc., priority 2018, published 2021).

Tested on: myocardial cells derived from human iPS cells
Test: Drug response of myocardial cells determined with MEA probe
Conditions: for Drug response, Oriented fiber sheet 2: myocardial cells cultured 7 days with oriented fiber sheet 2, pitch 10 μm

## COc1ccc(CCN(C)CCCC(C#N)(c2ccc(OC)c(OC)c2)C(C)C)cc1OC (stereo not shown) [Verapamil]
0.3 μM verapamil, myocardial cells directly cultured on MEA probe
  arrest (division stop): arrest (division stop) occurred
  Drug response, Oriented fiber sheet 2: No arrest occurred.
Listed as verapamil
  Drug response, Oriented fiber sheet 2: no an arrest (division stop) occurred
Myocardial cells cultured directly on MEA probe
  Drug response, MEA probe: Arrest occurred.
